Results: US8962825B2, “Hydroxamates as inhibitors of histone deacetylase” (GlaxoSmithKline Intellectual Property Development Limited, priority 2006, dated 2015)
pIC50: −log10 of the molar value.

Experiments:
[1] = system: U937 cells; assay: U937 cell inhibition assay (WST-1 cell viability); format: cell-based
Protocol: (§1) Cancer cell lines (U937 and HUT) growing in log phase were harvested and seeded at 1000-2000 cells/well (100 μl final volume) into 96-well tissue culture plates. Following 24 h of growth cells were treated with Compound. Plates were then re-incubated for a further 72-96 h before a WST-1 cell viability assay was conducted according to the suppliers (Roche Applied Science) instructions.
(§2) Data were expressed as a percentage inhibition of the control, measured in the absence of inhibitor, as follows: % inhibition=100−[(S^i/S^o)×100] where S^i is the signal in the presence of inhibitor and S^o is the signal in the presence of DMSO.
(§3) Dose response curves were generated from 8 concentrations (top final concentration 10 μM, with 3-fold dilutions), using 6 replicates.
(§4) IC50 values were determined by non-linear regression analysis, after fitting the results to the equation for sigmoidal dose response with variable slope (% activity against log concentration of Compound), using Graphpad Prism software.

[2] = system: HUT cells; assay: HUT cell inhibition assay (WST-1 cell viability); format: cell-based; conditions: 72-96 h
Protocol: as §1, §2, §3, §4

[3] = system: HeLa cells; assay: HeLa cell inhibition assay (sulphorhodamine B cell viability); format: cell-based; conditions: 72 h, SRB
Protocol: HeLa cells growing in log phase were harvested and seeded at 1000 cells/well (200 μl final volume) into 96-well tissue culture plates. Following 24 h of cell growth cells were treated with Compounds (final concentration of 20 μM). Plates were then re-incubated for a further 72 h before a sulphorhodamine B (SRB) cell viability assay was conducted according to the methodology described by Skehan et al, J. Natl. Canc. Inst., 1990, 82, 1107-1112.
Data were expressed as a percentage inhibition of the control, measured in the absence of inhibitor, as follows:— % inhibition=100−[(S^i/S^o)×100] where S^i is the signal in the presence of inhibitor and S^o is the signal in the presence of DMSO.
(§5) IC50 values were determined by non-linear regression analysis, after fitting the results of eight data points to the equation for sigmoidal dose response with variable slope (% activity against log concentration of Compound), using Graphpad Prism software.

[4] = biological target: T1, histone deacetylase activity (HeLa nuclear extract); assay: Histone deacetylase activity (Biomol Fluor de Lys HDAC fluorescent activity assay); format: biochemical; conditions: Fluor de Lys substrate
T1 construct: Histone deacetylase activity from crude nuclear extract derived from HeLa cells was used for screening
Protocol: The ability of compounds to inhibit histone deacetylase activities was measured using the commercially available HDAC fluorescent activity assay from Biomol. In brief, the Fluor de Lys™ substrate, a lysine with an epsilon-amino acetylation, is incubated with the source of histone deacetylase activity (HeLa nuclear extract) in the presence or absence of inhibitor. Deacetylation of the substrate sensitises the substrate to Fluor de Lys™ developer, which generates a fluorophore. Thus, incubation of the substrate with a source of HDAC activity results in an increase in signal that is diminished in the presence of an HDAC inhibitor.
Data are expressed as a percentage of the control, measured in the absence of inhibitor, with background signal being subtracted from all samples, as follows: % activity=[(S^i−B)/(S^o−B)]×100 where S^i is the signal in the presence of substrate, enzyme and inhibitor, S^o is the signal in the presence of substrate, enzyme and the vehicle in which the inhibitor is dissolved, and B is the background signal measured in the absence of enzyme.
as §5
Histone deacetylase activity from crude nuclear extract derived from HeLa cells was used for screening. The preparation, purchased from 4C (Seneffe, Belgium), was prepared from HeLa cells harvested whilst in exponential growth phase. The nuclear extract was prepared according to the methodology described by J. D. Dignam, Nucl. Acid. Res., 1983, 11, 1475-1489, snap frozen in liquid nitrogen and stored at −80° C. The final buffer composition was 20 mM Hepes, 100 mM KCl, 0.2 mM EDTA, 0.5 mM DTT, 0.2 mM PMSF and 20% (v/v) glycerol.

| SMILES | pIC50 ([1]; Homo sapiens, U-937, 72-96 h) | pIC50 ([3]; Homo sapiens) | pIC50 [4] | pIC50 ([1]; 72-96 h) | pIC50 [3] | pIC50 [2] |
| --- | --- | --- | --- | --- | --- | --- |
| O=C(NO)c1cnc(N2CCC(NCc3ccc(CN[C@H](C(=O)OC4CCCC4)c4ccccc4)cc3)CC2)nc1 [Example 31] |  |  | 6.00 to 7.00 | > 6.48 | 5.48 to 6.48 | 5.48 to 6.48 |
| O=C(NO)c1cnc(N2CC3C(CNCc4ccc(CN[C@H](C(=O)OC5CCCC5)c5ccccc5)cc4)C3C2)nc1 (stereo partly drawn) [Example 35, Cyclopentyl (2S)-[(4-{[({3-[5-(hydroxycarbamoyl)pyrimidin-2-yl]-3-azabicyclo[3.1.0]hex-6-yl}methyl)amino]methyl}benzyl)amino](phenyl)acetate] | 5.48 to 6.48 | 5.48 to 6.48 | > 7.00 |  |  | 5.48 to 6.48 |
| O=C(NO)c1cnc(N2CCC(CNCc3ccc(CN[C@H](C(=O)OC4CCCC4)C4CCCCC4)cc3)CC2)nc1 [Example 38, Cyclopentyl (2S)-cyclohexyl[(4-{[({1-[5-(hydroxycarbamoyl)pyrimidin-2-yl]piperidin-4-yl}methyl)amino]methyl}benzyl)amino]acetate] | > 6.48 | > 6.48 | > 7.00 |  |  | 5.48 to 6.48 |

The next lines start with results.

| pIC50 ([1]; Homo sapiens, U-937, 72-96 h) | pIC50 ([3]; Homo sapiens) | pIC50 [4] | pIC50 ([1]; 72-96 h) | pIC50 [3] | SMILES | pIC50 [2] |
| --- | --- | --- | --- | --- | --- | --- |
| > 6.48 | 5.48 to 6.48 | > 7.00 |  |  | O=C(NO)c1cnc(N2CCC(CN[C@H](C(=O)OC3CCCC3)C3CCCCC3)CC2)nc1 [Example 18, Cyclopentyl (2S)-cyclohexyl[({1-[5-(hydroxycarbamoyl)pyrimidin-2-yl]piperidin-4-yl}methyl)amino]acetate] | 5.48 to 6.48 |
| > 6.48 | 5.48 to 6.48 | > 7.00 |  |  | CC(C)C[C@H](NCc1ccc(CNC2CCN(c3ncc(C(=O)NO)cn3)CC2)cc1)C(=O)OC1CCCC1 [Example 27, Cyclopentyl N-{4-[({1-[5-(hydroxycarbamoyl)pyrimidin-2-yl]piperidin-4-yl}amino)methyl]benzyl}-L-leucinate] | > 6.48 |
| > 6.48 | 5.48 to 6.48 | > 7.00 |  |  | O=C(NO)c1cnc(N2CCC(NCc3ccc(CN[C@H](C(=O)OC4CCCC4)c4ccccc4)cc3)CC2)nc1 [Example 29] | 5.48 to 6.48 |
|  |  | > 7.00 | > 6.48 | 5.48 to 6.48 | O=C(NO)c1cnc(N2CCC(NCc3ccc(CN[C@H](C(=O)OC4CCCC4)c4ccccc4)cc3)CC2)nc1 [Example 33] | > 6.48 |
